Reference: PubChem BioAssay (NCI)
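Cultured in 96-well plates, cells were exposed to test compound for 48 hours across five concentrations. GI50 marks 50% less growth. TGI: concentration producing complete growth inhibition.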

Columns and labels:
Assay in all cases: inhibition of tumour cell growth, NCI panel, 48 h
[1] = tested on: NCI-H23 lung
[2] = tested on: NCI-H460 lung
[3] = tested on: NCI-H522 lung
[4] = tested on: NCI/ADR-RES ovarian
[5] = tested on: OVCAR-3 ovarian
[6] = tested on: OVCAR-4 ovarian
[7] = tested on: OVCAR-5 ovarian
[8] = tested on: OVCAR-8 ovarian
[9] = tested on: PC-3 prostate
[10] = tested on: RPMI-8226 leukemia
[11] = tested on: RXF 393 renal
[12] = tested on: SF-268 CNS
[13] = tested on: SF-295 CNS
[14] = tested on: SF-539 CNS
[15] = tested on: SK-MEL-2 melanoma
[16] = tested on: SK-MEL-28 melanoma
[17] = tested on: SK-MEL-5 melanoma
[18] = tested on: SK-OV-3 ovarian
[19] = tested on: SN12C renal
[20] = tested on: SNB-19 CNS
[21] = tested on: SNB-75 CNS
[22] = tested on: SR leukemia
[23] = tested on: SW-620 colon
[24] = tested on: T-47D breast
[25] = tested on: TK-10 renal
[26] = tested on: U251 CNS
[27] = tested on: UACC-257 melanoma
[28] = tested on: UACC-62 melanoma
[29] = tested on: UO-31 renal

## CCOC(=O)c1ccc2c(c1)c1c(C)c3cnccc3c(C)c1n2C
[1]
  GI50: 100 nM
  TGI: 417 nM
[2]
  GI50: 265 nM
  TGI: 1070 nM
[3]
  GI50: 88.1 nM
  TGI: 318 nM
[4]
  GI50: 68.2 nM
  TGI: 600 nM
[5]
  GI50: 119 nM
  TGI: 470 nM
[6]
  GI50: 217 nM
  TGI: 697 nM
[7]
  GI50: 216 nM
  TGI: 912 nM
[8]
  GI50: 116 nM
  TGI: 2990 nM
[9]
  GI50: 137 nM
  TGI: 821 nM
[10]
  GI50: 95.3 nM
  TGI: 1800 nM
[11]
  GI50: 120 nM
  TGI: 390 nM
[12]
  GI50: 98.8 nM
  TGI: 823 nM
[13]
  GI50: 128 nM
  TGI: 765 nM
[14]
  GI50: 173 nM
  TGI: 1070 nM
[15]
  GI50: 190 nM
  TGI: 677 nM
[16]
  GI50: 183 nM
  TGI: 463 nM
[17]
  GI50: 192 nM
  TGI: 651 nM
[18]
  GI50: 216 nM
  TGI: 713 nM
[19]
  GI50: 78.3 nM
  TGI: 865 nM
[20]
  GI50: 107 nM
  TGI: 1330 nM
[21]
  GI50: 141 nM
  TGI: 703 nM
[22]
  GI50: 44.7 nM
[23]
  GI50: 48.2 nM
  TGI: 839 nM
[24]
  GI50: 382 nM
  TGI: 15800 nM
[25]
  GI50: 334 nM
  TGI: 1310 nM
[26]
  GI50: 99.2 nM
  TGI: 830 nM
[27]
  GI50: 181 nM
  TGI: 651 nM
[28]
  GI50: 98.4 nM
  TGI: 264 nM
[29]
  GI50: 53.6 nM
  TGI: 728 nM
